This is an account of results in patent US20020058244A1, “Method for detecting uracil biosynthesis inhibitors and their use as herbicides” (priority 2000, published 2002).

In data set [1] the test system is grass species. The data set can be described thus: Greenhouse herbicide efficacy, preemergence and post-emergence, whole plant injury. The following applies: preemergence and post-emergence applications. In kind it is in vivo. An excerpt: (§1) The compounds were applied to flats containing individually potted plant species as post-emergent treatments, or seeded flats without emerged plants for preemergent treatments. The compounds were delivered in an 80% acetone solution plus 0.2% X-77. After two or three weeks of treatment, plants were rated compared to controls on a scale of 0 to 9 where 0 represents no injury and 9 represents 100% injury.

Data set [2] has as its system wheat. Description: Greenhouse herbicide efficacy, crop safety. In kind it is in vivo. The following applies: preemergence and post-emergence applications.
Description: as §1

Data set [3] relates to Arabidopsis. Description: Arabidopsis 96 well microtiter plate injury and reversal test. Type of data set: in vivo. The following applies: for reversal of lethal effects by uridine: 100 μM uridine. As for the experimental part:
The compounds were tested in a 96 microtiter well plate containing various concentrations of probe compound with or without intermediates of the pyrimidine and purine biosynthesis pathways to detect reversal of injury. Plates were filled with 0.7% agar medium, seeded with Arabidopsis, and placed in a growth chamber for several days to allow for seed germination and plant growth. Arabidopsis plates were rated on a scale from 0 to 9 where 0 represents no injury, and 9 represents no germination. In addition, injury symptoms observed were recorded.

Data set [4] concerns uracil biosynthesis pathway. The data set can be described thus: [14C]-carbamoyl aspartate incorporation into uracil/uridine and orotate in soybean cell cultures. Type of data set: cell-based. As for the experimental part: Soybean suspension cultures in the linear growth phase were used for [^14C]carbamoyl aspartate uptake and incorporation studies. Cells were treated with 0.01 uM [^14C]carbamoyl aspartate (approximately 200,000-400,000 dpm) with or without 100 uM compound “B”. Over time, aliquots were harvested by filtration, and rinsed thoroughly with potassium phosphate buffer, pH 3.11. Aliquots of uptake media and rinse were counted using a liquid scintillation spectrophotometer to determine percent uptake. Cells were immediately weighed, ground to a fine powder in liquid nitrogen, and suspended in 50% methanol. The homogenate was centrifuged at 10,000 g for 20 min. A portion of the pellet was weighed out and combusted to determine dpm's associated with this fraction. An aliquot of the supernatant was counted to determine the amount of label in the soluble fraction. Recovery of applied radiolabeled [^14C]carbamyol aspartate was 90-100%.
The soluble supernatant was concentrated overnight by lyophilization, and the extract was resuspended in 1 ml potassium phosphate buffer, pH 3.11. For HPLC analysis an anion exchange column was used with 85:15% potassium phosphate buffer, pH 3.11 and acetonitrile as running buffers. Fractions (1 ml) were collected for 20 min (flow rate […]), and counted using a liquid scintillation counter (LSC). UV absorbance was analyzed at 260 and 275 nm as the optimum absorbency wavelengths for UMP and orotate, respectively. Standards were used to identify the various peaks from the HPLC profile. Standard retention times under these conditions were: 3-4 min uracil/uridine, 7-9 min carbamoyl aspartate, 11-13 min UMP, and 17-19 min orotate.

Data set [5] concerns OPRTase/ODCase. Description: In vitro enzymatic conversion of [14C]-orotate to UMP, cell free extract from corn root tissue. In kind it is biochemical. The settings on record: for radiolabeled orotate converted to UMP: 15 minutes after treatment, 100 μM PRPP, untreated control 55%; for effect on OPRTase/ODCase activity (conversion of [14C]-orotate to UMP): cell free extract. Here is the method:
(§2) Etiolated corn roots and shoots or soybean suspension cells were used as tissue. Corn seedlings were germinated on vermiculite for 4 days in the dark at 26_C. and roots and shoots harvested separately. The soybean cells were grown in media consisting of Muashige and Skoog salts (Physiol. Plant (1962) 15:473-497) purchased from Gibco/BRL, vitamins (glycine 2 mg/L, thiamine 0.1 mg/L, nicotinic acid 0.5 mg/L, pyridoxine-HCl 0.5 mg/L), myo-inositol (100 mg/L), 2,4-D ([…]), and 30 g/L sucrose. Cell cultures are grown at 25° C. with gentle shaking. Cultures were transfered every 7 days to new growth media.
(§3) Approximately 5-10 g plant tissue were ground in liquid nitrogen and resuspended in 1:2 (w/v) homogenization buffer (30 mM KPO4^−; 25 mM […], 5 mM MgCl2, 5 mM ascorbic acid, pH 7.2). The homogenate was centrifuged at 10,000 g for 20 min, and the supernatant desalted using BioRad columns. The desalted supernatant was used for OPRTase/ODCase enzyme assays. For DHOD enzyme extraction, the supernatant was further centrifuged at 100,000 g for 45 min to obtain a microsomal pellet. The microsomal pellet was resuspended in 3-4 ml resuspension buffer (70 mM Tris-base, pH 7.4) containing 1% Triton X-100.
All enzyme assays were performed according to Rawls, J. M. (1978) Anal. Biochem. 86 (1): 107-117 and Cleaveland et al. (1995). Biochem. Pharm. 49(7):947-954. Enzyme assays were performed in a total volume of 200 ul with 1 uM [^14C]carbamoyl aspartate, [^14C]dihydroorotate or [^14C]orotate as substrates, and 1-5 mM probe compound or barbiturate as inhibitors. The [^14C]carbamoyl aspartate and [^14C]dihydroorotate assay was performed using a potassium phosphate buffer, pH 7.4 with 12 mM NAD^+, and 10 mM MgCl2. […] Over time, 25 ul aliquots were taken from the reaction tube and boiled for 5 min to stop the reaction. Samples were spotted onto cellulose TLC plates and run using 0.1 M potassium phosphate buffer, 100% ammonium sulfate, and 1-propanol (10:6:1). Plates were developed using a TLC plate radioisotope detector. Orotate and UMP standards were run next to unknowns to identify the conversion of [^14C]orotate to [^14C]UMP in the enzyme assay.

The test system of data set [6] is DHOD. The data set can be described thus: In vitro conversion of [14C]dihydroorotate to orotate, corn root microsomal preparation. In kind it is biochemical. Here is the method: as §2, §3
(§4) All enzyme assays were performed according to Rawls, J. M. (1978) Anal. Biochem. 86 (1): 107-117 and Cleaveland et al. (1995). Biochem. Pharm. 49(7):947-954. Enzyme assays were performed in a total volume of 200 ul with 1 uM [^14C]carbamoyl aspartate, [^14C]dihydroorotate or [^14C]orotate as substrates, and 1-5 mM probe compound or barbiturate as inhibitors. The [^14C]carbamoyl aspartate and [^14C]dihydroorotate assay was performed using a potassium phosphate buffer, pH 7.4 with 12 mM NAD^+, and 10 mM MgCl2. The [^14C]orotate enzyme assay was performed using Tris buffer, pH 8.8 with 12 mM PRPP and 10 mM MgCl2. Over time, 25 ul aliquots were taken from the reaction tube and boiled for 5 min to stop the reaction. Samples were spotted onto cellulose TLC plates and run using 0.1 M potassium phosphate buffer, 100% ammonium sulfate, and 1-propanol (10:6:1). Plates were developed using a TLC plate radioisotope detector. Orotate and UMP standards were run next to unknowns to identify the conversion of [^14C]orotate to [^14C]UMP in the enzyme assay.

For data set [7], the system named is DHO. Description: In vitro conversion of [14C]dihydroorotate to carbamoyl aspartate, corn root microsomal preparation. Type of data set: biochemical. Here is the method:
as §2, §3, §4

Data set [8] can be described thus: Stability in aqueous solution by mass spectroscopy and NMR. Type of data set: physicochemical. The following applies: aqueous solution. As for the experimental part:
The stability analysis of the compound “B”, compound “C”, compound “G”, and compound “E” compounds was performed using a Hewlett Packard HP1100 LC system coupled to a Micromass Platfom-LC mass spectrometer operating with an electrospray ionization source. In positive ion electrospray, AC12254 82A produced molecules at m/z 112(M^+), m/z 153 (M+41) at a cone voltage of 30V. Retention time of AC 12254 82A was 12.54 min with absorption maxima of 248 and 314 nm.
Column: Hypersil Spherisorb Waters ODS(2), 3.6×150 mm
Eluent: 60% acetonitrile, 40% water (0.1% formic acid)
Photodiode Array Detection: Scan Range: 190-600 nm
1H NMR was taken in DMSO-d6 on a 500 MHZ Bruker NMR Spectrometer. […] Each had 5 protons as follows: NH, 2OH and 2 CH.

For data set [9], the system named is whole plant. Description: Whole plant injury by barbiturate. The settings on record: in vivo.
Data set [10] deals with T1, dihyroorotate dehydrogenase (DHOD) (Rattus norvegicus, UniProt Q63707).
T1 construct: host or cells: rat brain tissue
T1 sequence (Q63707 whole entry): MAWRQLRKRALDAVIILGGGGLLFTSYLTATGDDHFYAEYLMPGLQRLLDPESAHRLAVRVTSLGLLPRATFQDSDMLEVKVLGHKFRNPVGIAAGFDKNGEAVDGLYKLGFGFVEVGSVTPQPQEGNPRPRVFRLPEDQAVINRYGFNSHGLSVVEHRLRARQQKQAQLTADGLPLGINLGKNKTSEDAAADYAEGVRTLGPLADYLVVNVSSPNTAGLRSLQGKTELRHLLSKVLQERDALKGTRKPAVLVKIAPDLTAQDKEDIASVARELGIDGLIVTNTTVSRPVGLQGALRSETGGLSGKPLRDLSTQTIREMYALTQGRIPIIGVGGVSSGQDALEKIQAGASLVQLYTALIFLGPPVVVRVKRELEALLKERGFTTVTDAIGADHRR
The following applies: rat brain tissue; cited from earlier work.

Data set [11] concerns the target T2, OPRTase (Rattus norvegicus, UniProt A0ACM8Q7Z8).
T2 construct: host or cells: rat brain tissue
T2 sequence (A0ACM8Q7Z8 1-481): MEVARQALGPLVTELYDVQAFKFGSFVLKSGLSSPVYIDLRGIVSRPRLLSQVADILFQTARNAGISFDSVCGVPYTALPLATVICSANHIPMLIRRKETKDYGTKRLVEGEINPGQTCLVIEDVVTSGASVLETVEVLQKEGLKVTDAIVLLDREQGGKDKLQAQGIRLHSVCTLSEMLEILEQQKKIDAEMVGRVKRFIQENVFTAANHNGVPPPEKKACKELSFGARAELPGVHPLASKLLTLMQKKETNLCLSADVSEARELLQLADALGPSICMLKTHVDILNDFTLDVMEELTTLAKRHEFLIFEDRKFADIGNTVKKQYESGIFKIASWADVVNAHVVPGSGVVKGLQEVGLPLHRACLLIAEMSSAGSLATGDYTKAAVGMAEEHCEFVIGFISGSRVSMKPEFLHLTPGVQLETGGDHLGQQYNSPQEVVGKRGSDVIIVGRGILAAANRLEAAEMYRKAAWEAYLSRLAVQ
The settings on record: rat brain tissue; cited from earlier work.

Data set [12] addresses T3, ODCase (Rattus norvegicus, UniProt A0ACM8Q7Z8).
T3 construct: host or cells: rat brain tissue
The settings on record: rat brain tissue; cited from earlier work.

For data set [13], the target named is uridine phosphorylase. The following applies: salvage pathway; cited from earlier work.

Read-outs that look alike come from different tables or passages of the source.

Take `O=C1NN=C/C1=C/Nc1ccc(F)cc1F` [B, 4-[[(2,4-difluorophenyl)amino]methylene]-2,4-dihydro-3H-pyrazol-3-one]: in data set [1], the “herbicidal effect, injury” value was at least 50%. Also, the crop safety result in data set [2] is recorded as “safety on wheat”. Moreover, the “germination of Arabidopsis seeds” value is listed as “normal germination” in [3] (1 μM); “partial germination” in data set [3] (16 μM); “not observed” in data set [3] (50 μM); “not observed” in data set [3] (100 μM); “not observed” in data set [3] (500 μM). For the same compound, the growth inhibition in data set [3] (30 uM combined with 100 uM uracil) is given as 0%. Besides, in [3] (100 uM antidote in growth media), the “reversal of injury by uracil, UMP and uridine” value is “reversed”. Further, the “reversal of lethal effects by uridine” value is on record as “does not reverse” in data set [3] (highest tested concentration of compound) and “reversed” in data set [3] (lower concentrations of compound (Rows 2-4)). Moreover, the inhibition at 30 µM in [3] (Arabidopsis thaliana, 30 uM, compound alone, read-out: growth inhibition) came to 50%. The IC50 is 30 µM in data set [3] (Arabidopsis thaliana, 96 well microtiter plate, read-out: estimated IC50 on Arabidopsis) and around 50 µM in [4] (Glycine max, soybean cell cultures, estimated, read-out: IC50 of inhibition of [14C]-carbamoyl aspartate incorporation). Moreover, the “reversal of herbicidal effects by orotate or OMP” value in data set [3] (in vivo) is recorded as “did not reverse”. In addition, in data set [3] (in vivo), the “reversal of herbicidal effects by vitamins or purines” value is reported as “Neither vitamins nor purines reversed”. Besides, the “reversal of lethal effects by adenine, cytosine, guanine, and thymidine” value in [3] (in vivo) is listed as “did not reverse”. Besides, the “incorporation of radiolabeled carbamoyl aspartate into uracil/uridine” value was 25% in [4] (50 μM); 10% in data set [4] (100 μM); 19% in data set [4] (100 μM, listed as probe compound); 80-90% in [4] (1 and 10 μM). Also, the “incorporation of [14C]-carbamoyl aspartate into orotate peak (16-19 min)” value in [4] (100 uM, HPLC profile FIG. 6) is reported as 70%. For the same compound, the “incorporation of radiolabeled carbamoyl aspartate into orotic acid” value in data set [4] (1 and 10 μM) is 0-5%; in data set [4] (50 and 100 μM), 45-60%. Moreover, the “radiolabeled orotate converted to UMP” value in data set [5] stood at 55%. Besides, the “effect on OPRTase/ODCase activity (conversion of [14C]-orotate to UMP)” value is “does not affect” in [5] and “did not inhibit” in data set [5] (listed as probe compound). For the same compound, the entries for the “effect on DHOD activity (dihydroorotate converted to orotate) versus untreated control” value in data set [6] and in data set [6] (listed as probe compound) were “no difference” and “did not inhibit”, respectively. Also, the “effect on DHO activity (dihydroorotate converted to carbamoyl aspartate) versus untreated control” value in data set [7] is listed as “no difference”; in data set [7] (listed as probe compound), “did not inhibit”. In [8], this compound returned a half-life below 24 h.

Take `O=C1CC(=O)NC(=O)N1` [barbiturate, reference compound]: the “inhibition of the conversion of orotic acid to UMP” value in data set [5] (1 mM) amounted to 80%; in [5] (2 mM), 100%. Further, the “radiolabeled orotate converted to UMP” value in data set [5] stood at 20%. The “inhibition of the conversion of [14C]-orotate to UMP” value in data set [5] (FIG. 10, concentration not stated) was determined as 80%. Besides, in [5], the “effect on OPRTase/ODCase activity (conversion of [14C]-orotate to UMP)” value is “inhibits”. For the same compound, the IC50 in [5] (corn root cell free extract, read-out: concentration at which there is 50% inhibition of UMP synthesis (IC50)) was below 270 µM. In data set [9], the whole plant injury result is recorded as “does not cause whole plant injury”. In addition, the Ki in data set [10] was 412 µM; in [11], 18 µM; in [12] it was 75 µM; in data set [13] it was 786 µM.
